US8877757B2, “Pyrazine derivatives and use as PI3K inhibitors” (Merck Serono SA, priority 2005, dated 2014)

Key:
[1] = target: Human recombinant GST-PI3δ (Homo sapiens (Human), UniProt O00329); test: PI3K induced-lipid phosphorylation scintillation proximity assay (neomycin-coated SPA beads); assay type: biochemical
Description: The efficacy of compounds of the invention in inhibiting the PI3K induced-lipid phosphorylation may be tested in the following binding assay.
The assay combines the scintillation proximity assay technology (SPA, Amersham) with the capacity of neomycin (a polycationic antibiotic) to bind phospholipids with high affinity and specificity. The Scintillation Proximity Assay is based on the properties of weakly emitting isotopes (such as ^3H, ^125I, ^33P). Coating SPA beads with neomycin allows the detection of phosphorylated lipid substrates after incubation with recombinant PI3K and radioactive ATP in the same well, by capturing the radioactive phospholipids to the SPA beads through their specific binding to neomycin.
To a 96 wells MTP containing 10 μl of the test compound of Formula (I) (solubilized in 10% DMSO; to yield a concentration of 100, 25, 5.0, 1.25, 0.312, 0.078, 0.0195, 0.00488, 0.00122 and 0.0003 μM of the test compound), the following assay components are added: 1) 10 μl of lipid micelles 2) 20 μl of Kinase buffer ([^33P]γ-ATP 162 μM/300 nCi, MgCl2 2.5 mM, DTT 2.5 mM, Na3VO4 25 μM in Hepes 40 mM, pH 7.4) and 3) 10 μl (100 ng) of Human recombinant GST-PI3δ (in Hepes 40 mM, pH 7.4, ethylenglycol 4%). After incubation at room temperature for 120 minutes, with gentle agitation, the reaction is stopped by addition of 200 μl of a solution containing 250 μg of neomycin-coated PVT SPA beads, ATP 60 mM and EDTA 6.2 mM in PBS. The assay is further incubated at room temperature for 60 minutes with gentle agitation to allow binding of phospholipids to neomycin-SPA beads. After precipitation of the neomycin-coated PVT SPA beads for 5 minutes at 1500×g, radioactive PtdIns(3)P is quantified by scintillation counting in a Wallac MicroBeta™ plate counter.
The values indicated in Table I below refer to the IC50 (μM) with respect to PI3K, i.e. the amount necessary to achieve 50% inhibition of said target. Said values show a considerable inhibitory potency of pyrazine compounds with regard to PI3K.

[2] = system: Akt phosphorylation in B cells; test: IgM-induced Akt phosphorylation in B cell (human PBMC, flow cytometry); assay type: cell-based; conditions: 5 min, CD19+ IgM+ B cells in human PBMC, anti IgM for 5 minutes, read-out: IC50, inhibition of IgM-induced Akt Phosphorylation
Description: Human PBMC were prepared from a Buffy coat (Geneve Hospital) after a Ficoll gradient (FICOLL-PAQUE Plus PHARMACIA ref: 17-1440-03).
Cell concentration was adjusted to 10^6 cells per ml in RPMI (GIBCO Ref: 72400-21) without serum. Before stimulation, 90 μl of PBMC suspension was incubated with 10 μl of diluted compound in a 96 well round bottom plate for 20 minutes at 37° C.
For B cell activation, 30 μl of Fab′2 Goat anti IgM (Jackson Immuno-research) at 10 μg/ml was added to each well. After 5 minutes, cell activation was stopped with 4% paraformaldehyde (10 minutes at room temperature).
Fixed PBMC were then treated for 20 minutes with 0.15% Triton, washed twice with PBS and permeabilized with 50% methanol for 15 minutes.
PBMC were washed twice in PBS, resuspended in: PBS-4% FCS and incubated with anti P-Akt (1/100 dilution) for one hour at room temperature.
After one wash, PBMC were further stained for 30 minutes with a mixture of anti-CD19-PE (BD Biosciences), anti-IgM-FITC (BD Biosciences) and goat anti rabbit IgG-Alexa 647 (Molecular probe).
After washing, PBMC (Peripheral Blood Mononuclear Cells) were analysed on a FACSCalibur instrument (BD Biosciences) equipped with a 633 helium-neon laser, or stored at 4° C. for further analysis. 510^3 B cells events were gathered per sample in the CD19 positive region.
For the analysis, a threshold was applied on P-Akt histogram of CD 19+ IgM+ lymphocytes cells from the non-stimulated samples and the percentage of cells above this threshold was determined for each sample.

[3] = system: PKB/Akt phosphorylation in mast cells; test: SCF-induced PKB/Akt phosphorylation in mast cells; assay type: cell-based, mice; conditions: Mast cell, 0.25 h; mast cells derived from mouse bone marrow, 20 ng/mL SCF for 15 minutes; read-out: IC50, inhibition of SCF-induced Akt Phosphorylation
Description: Protocol: Primary bone marrow cells were isolated from 4-8 weeks old wild type mice and derived to mast cells by incubation with medium containing 20 ng/mL of stem cell factor (SCF) (PeproTech, Switzerland) and 20 ng/mL of IL-3 (PeproTech, Switzerland) for at least 4 weeks. Confirmation of the expression of mast cell specific surface markers was done by FACS analysis using antibodies against c-kit (cKit-PE mouse antibody; Pharmingen). Cells were maintained in culture in the presence of SCF and IL-3. To induce PKB/Akt phosphorylation, mast cells were resuspended at 2.5×10^6 cells/mL and starved in medium containing no SCF or IL-3 for 24 h. After preincubation with compounds or 1% DMSO for 20 minutes, cells were activated with 20 ng/mL of SCF for 15 minutes at 37° C., fixed in 1.5% paraformaldehyde for 20 minutes and permeabilised with 0.2% Triton X-100 for 10 minutes, at room temperature. PKB/Akt phosphorylation was visualized using phospho-Ser-473 specific Akt antibodies (Cell Signaling) and standard FACS protocols.

Female Balb/c mice = test: Passive cutaneous anaphylaxis (PCA); assay type: in vivo; conditions: 30 mg/kg oral route, 2 hours before challenge
Description: Female Balb/c mice (Elevage Janvier) (8 week old) were intradermally injected by anti-DNP IgE (50 ng in 20 μl, id, 2 sites of injection) on their shaved backs. Twenty four hours later they received an intravenous injection of DNP-human serum albumin (50 μg/mouse) and Evans blue (25 mg/kg) by retroorbital injection. Thirty minutes later, the animals were sacrificed. The skin of the back was removed. The extravasated dye (punch diameter: 5 mm) was extracted from 2 punches by 0.4 ml of formamide and was quantified by fluorescence (E1: 585 nm, E2: 660 nm).
Inhibitors are administered by oral route at the dose of 30 mg/kg 2 hours before the challenge of DNP-human serum albumin and Evans blue.

Class I PI3-kinases = conditions: Fruman et al., 1998; read-out: IC50 against each of the various Class I PI3-kinases; cited from earlier work

Chain of Human recombinant GST-PI3δ (O00329 whole entry): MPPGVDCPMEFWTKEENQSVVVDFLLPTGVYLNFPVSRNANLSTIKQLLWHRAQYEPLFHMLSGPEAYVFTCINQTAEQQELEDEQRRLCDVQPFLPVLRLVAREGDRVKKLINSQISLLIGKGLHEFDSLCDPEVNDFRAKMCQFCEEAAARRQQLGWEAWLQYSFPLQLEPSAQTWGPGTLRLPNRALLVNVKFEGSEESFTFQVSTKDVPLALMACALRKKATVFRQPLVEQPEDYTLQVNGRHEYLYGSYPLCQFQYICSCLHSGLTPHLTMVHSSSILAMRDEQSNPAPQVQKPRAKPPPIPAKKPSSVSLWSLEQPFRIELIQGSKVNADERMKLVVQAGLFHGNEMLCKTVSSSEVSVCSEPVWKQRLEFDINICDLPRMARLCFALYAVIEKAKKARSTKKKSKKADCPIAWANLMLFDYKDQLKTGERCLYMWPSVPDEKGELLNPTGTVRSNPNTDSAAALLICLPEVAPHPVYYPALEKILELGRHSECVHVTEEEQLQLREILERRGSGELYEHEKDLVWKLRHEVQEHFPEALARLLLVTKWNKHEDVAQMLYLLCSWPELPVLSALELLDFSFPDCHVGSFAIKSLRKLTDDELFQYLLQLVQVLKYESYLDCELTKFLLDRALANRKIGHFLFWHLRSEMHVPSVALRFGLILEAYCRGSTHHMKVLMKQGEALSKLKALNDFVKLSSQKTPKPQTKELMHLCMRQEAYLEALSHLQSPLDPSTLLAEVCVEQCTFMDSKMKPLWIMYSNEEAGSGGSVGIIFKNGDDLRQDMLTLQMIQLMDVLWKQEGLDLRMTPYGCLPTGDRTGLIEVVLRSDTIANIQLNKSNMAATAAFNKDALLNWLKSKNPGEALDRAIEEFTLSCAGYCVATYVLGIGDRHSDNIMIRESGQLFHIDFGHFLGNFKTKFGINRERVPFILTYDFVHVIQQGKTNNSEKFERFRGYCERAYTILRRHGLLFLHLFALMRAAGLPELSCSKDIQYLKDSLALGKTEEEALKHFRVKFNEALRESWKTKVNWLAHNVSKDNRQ

Row | Structure (SMILES) | IC50 [1] [nM] | IC50 [2] [nM] | IC50 [3] [nM] | inhibition of vascular permeability (Female Balb/c mice) [%] | IC50 (Class I PI3-kinases) [nM]
1 | COc1ccc(OC)c(Nc2nc3ccccc3nc2NS(=O)(=O)c2cccc(C#N)c2)c1 [Example 11, 3-Cyano-N-{3-[(2,5-dimethoxyphenyl)amino]quinoxalin-2-yl}benzene sulfonamide] | 430 | – | – | – | –
2 | COc1ccc(OC)c(Nc2nc3ccccc3nc2NS(=O)(=O)c2cn(C)cn2)c1 [Example 13, N-{3-[(2,5-dimethoxyphenyl)amino]quinoxalin-2-yl}-1-methyl-1H-imidazole-4-sulfonamide] | 80 | 30 | – | – | –
3 | COc1ccc(OC)c(Nc2nc3ccccc3nc2NS(=O)(=O)c2ccc3c(c2)sc(=O)n3C)c1 [Example 29, N-{3-[(2,5-dimethoxyphenyl)amino]quinoxalin-2-yl}-3-methyl-2-oxo-2,3-dihydro-1,3-benzothiazole-6-sulfonamide] | 240 | – | – | – | –
4 | COc1ccc(OC)c(Nc2nc3ccccc3nc2NS(=O)(=O)c2cccnc2)c1 [Example 65, N-{3-[(2,5-dimethoxyphenyl)amino]quinoxalin-2-yl}pyridine-3-sulfonamide] | 56 | 21 | 1190 | 84 | –
5 | COc1ccc(OC)c(Nc2nc3ncccc3nc2NS(=O)(=O)c2ccccc2)c1 [Example 86, N-{3-[(2,5-dimethoxyphenyl)amino]pyrido[2,3-b]pyrazin-2-yl}benzene sulfonamide] | 73 | – | – | – | –
6 | COc1cc(Nc2nc3ccccc3nc2NS(=O)(=O)c2ccc(CN(C)C)cc2)cc(OC)c1 [Example 138, N-{3-[(3,5-dimethoxyphenyl)amino]quinoxalin-2-yl}-4-[(dimethylamino)methyl]benzenesulfonamide] | 27 | 16 | 180 | – | –
7 | COc1cc(Nc2nc3ccccc3nc2NS(=O)(=O)c2cccc(C(=O)NCCCN(C)C)c2)cc(OC)c1 [Example 144, 3-[({3-[(3,5-dimethoxyphenyl)amino]quinoxalin-2-yl}amino)sulfonyl]-N-[3-(dimethylamino)propyl]benzamide] | 30 | – | – | – | –
8 | COC[C@H]1OC(=O)c2coc3c2[C@@]1(C)C1=C(C3=O)[C@@H]2CCC(=O)[C@@]2(C)C[C@H]1OC(C)=O [Wortmannin] | – | – | – | – | 1 to 10
